Data reported in patent publication US12390441B2, “Immunomodulating o-het/aryl azalides” (Zoetis Services LLC, priority 2020, dated 2025).
Marks after values point to notes of the source that are not given here.

Tested on: BRD pathogens, M. haemolytica and P. multocida
Experiment: In-vitro MIC model, BRD pathogen screening panel
Assay type: cell-based, Mannheimia haemolytica; Pasteurella multocida
Conditions: at least one BRD strain

SMILES | MIC flag at the example number (Table E) | further results
CCCNC[C@]1(O)[C@H](C)O[C@@H](O[C@H]2[C@H](C)[C@@H](O[C@@H]3O[C@H](C)C[C@H](NC)[C@H]3Oc3ccc(OC)c(OC)c3)[C@](C)(O)C[C@@H](C)CN[C@H](C)[C@@H](O)[C@](C)(O)[C@@H](CC)OC(=O)[C@@H]2C)C[C@@]1(C)OC [Example E-74] | E-74* (MIC ≤ 64 μg/mL for at least one BRD strain) | 
CCCNC[C@]1(O)[C@H](C)O[C@@H](O[C@H]2[C@H](C)[C@@H](O[C@@H]3O[C@H](C)C[C@H](NC)[C@H]3Oc3ccc(C(F)(F)F)cc3)[C@](C)(O)C[C@@H](C)CN[C@H](C)[C@@H](O)[C@](C)(O)[C@@H](CC)OC(=O)[C@@H]2C)C[C@@]1(C)OC [Example E-104] | E-104* (MIC ≤ 64 μg/mL for at least one BRD strain) | 
CCCNC[C@]1(O)[C@H](C)O[C@@H](O[C@H]2[C@H](C)[C@@H](O[C@@H]3O[C@H](C)C[C@H](N(C)C)[C@H]3Oc3ccc(C(=O)N4CCCC4)cc3)[C@](C)(O)C[C@@H](C)CN[C@H](C)[C@@H](O)[C@](C)(O)[C@@H](CC)OC(=O)[C@@H]2C)C[C@@]1(C)OC [Example E-95] | E-95* (MIC ≤ 64 μg/mL for at least one BRD strain) | 
CC[C@H]1OC(=O)[C@H](C)[C@@H](O[C@H]2C[C@@](C)(OC)[C@@H](O)[C@H](C)O2)[C@H](C)[C@@H](O[C@@H]2O[C@H](C)C[C@H](NC)[C@H]2Oc2cc(F)ccc2OC)[C@](C)(O)C[C@@H](C)CN(C)[C@H](C)[C@@H](O)[C@]1(C)O [Example A-14] |  | MIC flag at the example number (Table A): A-14* (MIC ≤ 64 μg/mL for at least one BRD strain)
CCCNC[C@]1(O)[C@H](C)O[C@@H](O[C@H]2[C@H](C)[C@@H](O[C@@H]3O[C@H](C)C[C@H](N(C)C)[C@H]3Oc3ccc(OC)c(OCC)c3)[C@](C)(O)C[C@@H](C)CN[C@H](C)[C@@H](O)[C@](C)(O)[C@@H](CC)OC(=O)[C@@H]2C)C[C@@]1(C)OC [Example E-88] | E-88* (MIC ≤ 64 μg/mL for at least one BRD strain) | 
CCCNC[C@]1(O)[C@H](C)O[C@@H](O[C@H]2[C@H](C)[C@@H](O[C@@H]3O[C@H](C)C[C@H](N(C)C)[C@H]3Oc3cccc(C)c3)[C@](C)(O)C[C@@H](C)CN[C@H](C)[C@@H](O)[C@](C)(O)[C@@H](CC)OC(=O)[C@@H]2C)C[C@@]1(C)OC [Example E-123] | E-123* (MIC ≤ 64 μg/mL for at least one BRD strain) | 
CCCNC[C@]1(O)[C@H](C)O[C@@H](O[C@H]2[C@H](C)[C@@H](O[C@@H]3O[C@H](C)C[C@H](NC)[C@H]3Oc3ccccc3Cl)[C@](C)(O)C[C@@H](C)CN[C@H](C)[C@@H](O)[C@](C)(O)[C@@H](CC)OC(=O)[C@@H]2C)C[C@@]1(C)OC [Example E-14] | E-14* (MIC ≤ 64 μg/mL for at least one BRD strain) | 
CCCN(C[C@]1(O)[C@H](C)O[C@@H](O[C@H]2[C@H](C)[C@@H](O[C@@H]3O[C@H](C)C[C@H](NC)[C@H]3Oc3ncccn3)[C@](C)(O)C[C@@H](C)CN[C@H](C)[C@@H](O)[C@](C)(O)[C@@H](CC)OC(=O)[C@@H]2C)C[C@@]1(C)OC)c1ncccn1 [Example E-118] | E-118* (MIC ≤ 64 μg/mL for at least one BRD strain) | 
CC[C@H]1OC(=O)[C@H](C)[C@@H](O[C@H]2C[C@@](C)(OC)[C@@H](O)[C@H](C)O2)[C@H](C)[C@@H](O[C@@H]2O[C@H](C)C[C@H](N(C)C)[C@H]2Oc2ccc(OC)nc2OC)[C@](C)(O)C[C@@H](C)CN(C)[C@H](C)[C@@H](O)[C@]1(C)O [Example A-43] |  | MIC flag at the example number (Table A): A-43* (MIC ≤ 64 μg/mL for at least one BRD strain)
CCCNC[C@]1(O)[C@H](C)O[C@@H](O[C@H]2[C@H](C)[C@@H](O[C@@H]3O[C@H](C)C[C@H](N(C)C(=O)N4CCOc5ccccc54)[C@H]3Oc3ccccc3)[C@](C)(O)C[C@@H](C)CN[C@H](C)[C@@H](O)[C@](C)(O)[C@@H](CC)OC(=O)[C@@H]2C)C[C@@]1(C)OC [Example G-2] |  | MIC flag at the example number (Table G): G-2* (MIC ≤ 64 μg/mL for at least one BRD strain)
